Laboratory results taken from patent publication US11013726B2 (Arbutus Biopharma Corporation, priority 2016, dated 2021).

The molecules below were run on HBsAg (assay: HBsAg assay). Settings: Hepatitis B virus, HepG2.2.15, 144 h, read-out: sAg EC50, μM, HepG2.2.15 cells, day 6.
Assay type: cell-based, hepatitis B virus
Procedure, shortened: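 HepG2.2.15 cells were treated with serially diluted compounds (0.5% DMSO), with medium and compound renewed after 2-3 days. Secreted HBsAg measured at day 6 by chemiluminescence immunoassay; EC50 from dose-response curves. Viability assessed in parallel by CellTiter-Glo.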

| SMILES | EC50 [µM] |
| --- | --- |
| COCCCOc1cc2c(nc1Cl)-c1cc(=O)c(C(=O)O)cn1C1(COC1)CO2 [Example 71, 2-Chloro-3-(3-methoxypropoxy)-1-oxo-6H,11H-spiro[dipyrido[1,2-d:2′,3′-f][1,4]oxazepine-7,3′-oxetane]-10-carboxylic acid] | 30 |
| CC(C)C1Cc2sccc2-c2cc(=O)c(C(=O)O)cn21 (centres unmarked) [Example 84, 5-Isopropyl-9-oxo-4,9-dihydro-5H-thieno[3,2-a]quinolizine-8-carboxylic acid] | 3.2 |
| COCCCOc1cc2c(nc1OC)-c1cc(=O)c(-c3n[nH]c(=S)[nH]3)cn1[C@H](C(C)C)C2 [Example 109, (S)-6-Isopropyl-2-methoxy-3-(3-methoxypropoxy)-9-(5-thioxo-4,5-dihydro-1H-1,2,4-triazol-3-yl)-5,6-dihydro-10H-pyrido[1,2-h][1,7]naphthyridin-10-one] | 0.029 |
| COCCCOc1cc2c(cc1Cl)-c1cc(=O)c(NC(C)=O)cn1C(C(C)(C)C)C2 (centres unmarked) [Example 121, N-[6-Tert-butyl-10-chloro-9-(3-methoxypropoxy)-2-oxo-6H,7H-pyrido[2,1-a]isoquinolin-3-yl]acetamide] | 8.6 |
| COCCCOc1cc2c(cc1Cl)-c1cc(=O)c(OC)cn1[C@H](C(C)C)CO2 [Example 139, (R)-2-Chloro-7-isopropyl-10-methoxy-3-(3-methoxypropoxy)-6,7-dihydro-11H-benzo[f]pyrido[1,2-d][1,4]oxazepin-11-one] | 14 |
| COc1nc2c(s1)CC(C(C)C)n1cc(C(=O)O)c(=O)cc1-2 (centres unmarked) [Example 87, 5-Isopropyl-2-methoxy-9-oxo-4,9-dihydro-5H-thiazolo[4,5-a]quinolizine-8-carboxylic acid] | 3.8 |
| COCCCOc1cc2c(cc1Cl)-c1cc(=O)c(B(O)O)cn1[C@H](C(C)C)CO2 [Example 140, (R)-(2-Chloro-7-isopropyl-3-(3-methoxypropoxy)-11-oxo-6,7-dihydro-11H-benzo[f]pyrido[1,2-d][1,4]oxazepin-10-yl)boronic acid] | 2.1 |
| COCCCOc1cc2c(cc1Cl)-c1cc(=O)c(N3C(=O)CCC3=O)cn1C(C(C)(C)C)C2 (centres unmarked) [Example 125, 1-[6-Tert-butyl-10-chloro-9-(3-methoxypropoxy)-2-oxo-6H,7H-pyrido[2,1-a]isoquinolin-3-yl]pyrrolidine-2,5-dione] | 12 |
| COCCCOc1cc2c(nc1OC)-c1cc(=O)c(C(=O)NS(C)(=O)=O)cn1[C@H](C(C)C)C2 [Example 118, (S)-6-Isopropyl-2-methoxy-3-(3-methoxypropoxy)-N-(methylsulfonyl)-10-oxo-5,10-dihydro-6H-pyrido[1,2-h][1,7]naphthyridine-9-carboxamide] | 0.051 |
| COCc1nc2c(s1)CC(C(C)C)n1cc(C(=O)O)c(=O)cc1-2 (centres unmarked) [Example 88, 5-Isopropyl-2-(methoxymethyl)-9-oxo-4,9-dihydro-5H-thiazolo[4,5-a]quinolizine-8-carboxylic acid] | 3.1 |
| CC(C)[C@@H]1CCc2cc3c(nc2-c2cc(=O)c(C(=O)O)cn21)OCCCO3 [Example 169, (S)-6-Isopropyl-2-oxo-2,6,7,8,12,13-hexahydro-111-[1,4]dioxepino[2′,3′:5,6]pyrido[2,3-c]pyrido[1,2-a]azepine-3-carboxylic acid] | 2.2 |
| COCCCCOc1cc2c(cc1Cl)-c1cc(=O)c(C(=O)O)cn1[C@H](C(C)C)CO2 [Example 38, (R)-2-Chloro-7-isopropyl-3-(4-methoxybutoxy)-11-oxo-6,7-dihydro-11H-benzo[f]pyrido[1,2-d][1,4]oxazepine-10-carboxylic acid] | 0.017 |
| COCCCOc1cc2c(nc1OC)-c1cc(=O)c(-c3nnc(C)s3)cn1[C@H](C(C)C)C2 [Example 108, (S)-6-Isopropyl-2-methoxy-3-(3-methoxypropoxy)-9-(5-methyl-1,3,4-thiadiazol-2-yl)-5,6-dihydro-10H-pyrido[1,2-h][1,7]naphthyridin-10-one] | 0.045 |
| C=Cc1cc2c(cc1OCCCOC)OC[C@@H](C(C)C)n1cc(C(=O)O)c(=O)cc1-2 [Example 48, (R)-7-Isopropyl-3-(3-methoxypropoxy)-11-oxo-2-vinyl-6,7-dihydro-11H-benzo[f]pyrido[1,2-d][1,4]oxazepine-10-carboxylic acid] | 0.004 |
| CCc1cc2c(cc1OCC1CC1)OC[C@@H](C(C)C)n1cc(C(=O)O)c(=O)cc1-2 [Example 50, (R)-3-(Cyclopropylmethoxy)-2-ethyl-7-isopropyl-11-oxo-6,7-dihydro-11H-benzo[f]pyrido[1,2-d][1,4]oxazepine-10-carboxylic acid] | 0.011 |
| COCCNc1cc2c(cc1Cl)-c1cc(=O)c(C(=O)O)cn1[C@H](C(C)C)CO2 [Example 64, (R)-2-Chloro-7-isopropyl-3-((2-methoxyethyl)amino)-11-oxo-6,7-dihydro-11H-benzo[f]pyrido[1,2-d][1,4]oxazepine-10-carboxylic acid] | 0.066 |
| COCCCOc1cc2c(nc1OC)-c1cc(=O)c(C#N)cn1[C@H](C(C)C)C2 [Example 113, (S)-6-Isopropyl-2-methoxy-3-(3-methoxypropoxy)-10-oxo-5,10-dihydro-6H-pyrido[1,2-h][1,7]naphthyridine-9-carbonitrile] | 1 |
| COCCCOc1cc2c(cc1Cl)-c1cc(=NO)c(C(=O)OC)cn1C(C(C)(C)C)C2 (centres unmarked) [Example 144, Methyl 6-tert-butyl-10-chloro-2-(hydroxyimino)-9-(3-methoxypropoxy)-6H,7H-pyrido[2,1-a]isoquinoline-3-carboxylate] | 0.17 |
| COCCCOc1cc2c(nc1Cl)-c1cc(=O)c(C(=O)O)cn1C1(CCSCC1)CO2 [Example 74, 2-Chloro-3-(3-methoxypropoxy)-11-oxo-2′,3′,5′,6′-tetrahydro-6H,11H-spiro[dipyrido[1,2-d:2′,3′-f][1,4]oxazepine-7,4′-thiopyran]-10-carboxylic acid] | 5 |
| COCCCN(C)c1cc2c(cc1Cl)-c1cc(=O)c(C(=O)O)cn1[C@H](C(C)C)CO2 [Example 63, (R)-2-Chloro-7-isopropyl-3-((3-methoxypropyl)(methyl)amino)-11-oxo-6,7-dihydro-11H-benzo[f]pyrido[1,2-d][1,4]oxazepine-10-carboxylic acid] | 0.03 |
| CC(C)[C@@H]1COc2cc(O)c(Cl)nc2-c2cc(=O)c(C(=O)O)cn21 [Example 78, (R)-2-Chloro-3-hydroxy-7-isopropyl-11-oxo-6,7-dihydro-11H-dipyrido[1,2-d:2′,3′-f][1,4]oxazepine-10-carboxylic acid] | 5 |
| COCCCOc1cc2c(cc1Cl)-c1cc3noc(=O)c-3cn1C(C(C)(C)C)C2 (centres unmarked) [Example 146, 6-(Tert-butyl)-2-chloro-3-(3-methoxypropoxy)-5,6-dihydro-9H-isoxazolo[3′,4′:4,5]pyrido[2,1-a]isoquinolin-9-one] | 0.031 |
| CC(C)[C@@H]1COc2cc(OCC3CC3)c(Cl)cc2-c2cc(=O)c(C(=O)O)cn21 [Example 35, (R)-2-Chloro-3-(cyclopropylmethoxy)-7-isopropyl-11-oxo-6,7-dihydro-11H-benzo[f]pyrido[1,2-d][1,4]oxazepine-10-carboxylic acid] | 0.033 |
| COc1cc2c(cc1Cl)-c1cc3noc(=O)c-3cn1C(C(C)C)CO2 (centres unmarked) [Example 151, 2-Chloro-7-isopropyl-3-methoxy-6,7-dihydro-10H-benzo[f]isoxazolo[3′,4′:4,5]pyrido[1,2-d][1,4]oxazepin-10-one] | 13 |
| COc1cc2c(cc1Cl)-c1cc(=O)c(C(=O)O)cn1C(C1CCC1)CO2 (centres unmarked) [Example 10, 2-Chloro-7-cyclobutyl-3-methoxy-11-oxo-6,7-dihydro-11H-benzo[f]pyrido[1,2-d][1,4]oxazepine-10-carboxylic acid] | 0.24 |
| COCCCOc1cc2c(nc1Cl)-c1cc(=O)c(C(=O)O)cn1C1(CO2)CC(C)(C)C1 [Example 72, 2′-Chloro-3′-(3-methoxypropoxy)-3,3-dimethyl-11′-oxo-6′H,11′H-spiro[cyclobutane-1,7′-dipyrido[1,2-d:2′,3′-f][1,4]oxazepine]-10′-carboxylic acid] | 0.18 |
| COCCCOc1cc2c(nc1OC)-c1cc(=O)c(C(=O)O)cn1C(C(C)C)C2 (centres unmarked) [Example 20, 6-Isopropyl-2-methoxy-3-(3-methoxypropoxy)-10-oxo-5,10-dihydro-6H-pyrido[1,2-h][1,7]naphthyridine-9-carboxylic acid] | 0.005 |
| CCc1cc2c(cc1OCCCO)OC[C@@H](C(C)C)n1cc(C(=O)O)c(=O)cc1-2 [Example 56, (R)-2-Ethyl-3-(3-hydroxypropoxy)-7-isopropyl-11-oxo-6,7-dihydro-111H-benzo[f]pyrido[1,2-d][1,4]oxazepine-10-carboxylic acid] | 0.026 |
| COCCCOc1cc2c(cc1Cl)-c1cc(=O)c(NC(=O)OC(C)(C)C)cn1C(C(C)(C)C)C2 (centres unmarked) [Example 119, Tert-butyl N-[6-tert-butyl-10-chloro-9-(3-methoxypropoxy)-2-oxo-6H,7H-pyrido[2,1-a]isoquinolin-3-yl]carbamate] | 0.14 |
| CC(C)[C@@H]1Cc2cc(O)c(O)nc2-c2cc(=O)c(C(=O)O)cn21 [Example 164, (6S)-2,3-Dihydroxy-6-isopropyl-10-oxo-5H,6H-pyrido[1,2-h]1,7-naphthyridine-9-carboxylic acid] | 10 |

Same assay, conditions: read-out: sAg EC50; HepG2.2.15 cells, day 6

| SMILES | EC50 [µM] |
| --- | --- |
| COCCCOc1cc2c(nc1OC)-c1cc(=O)c(C(=O)O)cn1C(C)(C(C)(C)C)C2 (single isomer, unassigned) [Example 160, 6-(Tert-butyl)-2-methoxy-3-(3-methoxypropoxy)-6-methyl-10-oxo-5,10-dihydro-6H-pyrido[1,2-h][1,7]naphthyridine-9-carboxylic acid] | 0.038 |
| COCCCOc1cc2c(nc1Cl)-c1cc(=O)c(C(=O)O)cn1C1C(CCC1(C)C)O2 (single isomer, unassigned) [Example 82, 6-Chloro-7-(3-methoxypropoxy)-12,12-dimethyl-3-oxo-9a,11,12,12a-tetrahydro-3H,10H-cyclopenta[b]dipyrido[1,2-d:2′,3′-f][1,4]oxazepine-2-carboxylic acid] | 0.008 |
